Experimental data as given in US20040156869A1, “2-substituted quinazolin-4-ylamine analogues” (Neurogen Corporation, priority 2002, published 2004).

target: human capsaicin receptor (VR1) (Homo sapiens, UniProt Q8NER1); assay: Capsaicin receptor binding assay ([3H]RTX competition, VR1-transfected HEK293 membranes)
Sequence (Q8NER1 whole entry): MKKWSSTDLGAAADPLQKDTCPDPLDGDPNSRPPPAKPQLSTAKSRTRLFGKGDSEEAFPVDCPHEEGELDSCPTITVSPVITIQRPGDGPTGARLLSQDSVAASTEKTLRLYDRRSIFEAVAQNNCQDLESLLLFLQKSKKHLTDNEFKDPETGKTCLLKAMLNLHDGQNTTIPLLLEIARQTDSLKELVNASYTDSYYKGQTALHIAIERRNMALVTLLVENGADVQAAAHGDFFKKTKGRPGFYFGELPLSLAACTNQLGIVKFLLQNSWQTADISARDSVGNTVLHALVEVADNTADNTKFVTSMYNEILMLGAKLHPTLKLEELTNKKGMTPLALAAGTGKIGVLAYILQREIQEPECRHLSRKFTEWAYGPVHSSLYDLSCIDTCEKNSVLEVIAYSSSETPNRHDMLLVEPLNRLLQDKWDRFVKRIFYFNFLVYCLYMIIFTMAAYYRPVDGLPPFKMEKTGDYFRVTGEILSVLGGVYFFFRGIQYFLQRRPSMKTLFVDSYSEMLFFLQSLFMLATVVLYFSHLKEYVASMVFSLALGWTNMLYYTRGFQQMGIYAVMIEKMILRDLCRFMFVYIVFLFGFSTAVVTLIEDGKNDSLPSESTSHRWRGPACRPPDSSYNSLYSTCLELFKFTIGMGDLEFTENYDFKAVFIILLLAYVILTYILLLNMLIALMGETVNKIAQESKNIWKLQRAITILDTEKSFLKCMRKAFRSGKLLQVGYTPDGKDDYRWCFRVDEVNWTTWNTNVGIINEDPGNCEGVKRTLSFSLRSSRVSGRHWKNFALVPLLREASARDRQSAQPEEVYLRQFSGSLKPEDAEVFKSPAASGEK

Q: How did the Ki turn out when `CCCN(CCC)C(=O)c1nc(Nc2ccc(C(F)(F)F)cc2)c2ccc(-c3ncccc3C(F)(F)F)nc2n1` [Compound 466, 4-(4-Trifluoromethyl-phenylamino)-7-(3-trifluoromethyl-pyridin-2-yl)-pyrido[2,3-d]pyrimidine-2-carboxylic acid dipropylamide] was run?
A: < 1 µM

Q: `CC(C)CCNCc1nc(Nc2ccc(C(F)(F)F)cc2)c2ccc(-c3ncccc3C(F)(F)F)cc2n1` [Compound 537, [2-[(3-Methyl-butylamino)-methyl]-7-(3-trifluoromethyl-pyridin-2-yl)-quinazolin-4-yl]-(4-trifluoromethyl-phenyl)-amine] was tested. Which Ki did it give?
A: < 1 µM

Q: `COCc1nc(Nc2ccc(C(C)(C)C)nc2)c2ccc(-c3ncccc3Cl)nc2n1` [Compound 199, (6-tert-Butyl-pyridin-3-yl)-[7-(3-chloro-pyridin-2-yl)-2-methoxymethyl-pyrido[2,3-d]pyrimidin-4-yl]-amine] was tested. Which Ki did it give?
A: < 1 µM

Q: For `C[C@@H]1CN(Cc2nc(Nc3ccc(C(F)(F)F)cc3)c3cnc(-c4ccccc4C(F)(F)F)cc3n2)C[C@H](C)O1` [Compound 612, [2-(2,6-Dimethyl-morpholin-4-ylmethyl)-7-(2-trifluoromethyl-phenyl)-pyrido[4,3-d]pyrimidin-4-yl]-(4-trifluoromethyl-phenyl)-amine (cis)], which Ki is on record?
A: < 1 µM

Q: For `CC(C)S(=O)(=O)c1ccc(Nc2nc(CN3CCO[C@@H](C)C3)nc3cc(-c4ncccc4Cl)ccc23)cc1` [Compound 646, (S)-[7-(3-Chloro-pyridin-2-yl)-2-(2-methyl-morpholin-4-ylmethyl)-quinazolin-4-yl]-[4-(propane-2-sulfonyl)-phenyl]-amine], which Ki is on record?
A: < 1 µM

Q: `CC(C)CCNC(=O)c1nc(Nc2ccc(C(F)(F)F)cc2)c2ccc(-c3ncccc3C(F)(F)F)cc2n1` [Compound 761, 4-(4-Trifluoromethyl-phenylamino)-7-(3-trifluoromethyl-pyridin-2-yl)-quinazoline-2-carboxylic acid (3-methyl-butyl)-amide] was tested. Which Ki did it give?
A: < 1 µM

Q: With `CC(=O)c1ccc(Nc2nc(COCC(C)C)nc3nc(-c4ncccc4Cl)ccc23)cc1` [Compound 262, 1-{4-[7-(3-Chloro-pyridin-2-yl)-2-isobutoxymethyl-pyrido(2,3-d]pyrimidin-4-ylamino]-phenyl}-ethanone] as the compound, how does the Ki read?
A: < 1 µM

Q: `Cc1cccc(-c2ccc3c(Nc4ccc(C(C)(C)C)cc4)nc(CN4C[C@@H](C)O[C@@H](C)C4)nc3c2)n1` [Compound 637, (4-tert-Butyl-phenyl)-[2-(2,6-dimethyl-morpholin-4-ylmethyl)-7-(6-methyl-pyridin-2-yl)-quinazolin-4-yl]amine (cis)] was tested. Which Ki did it give?
A: < 1 µM

Q: With `Cc1cccnc1-c1ccc2c(Nc3ccc(C(C)(C)C)cc3)nc(CO)nc2n1` [Compound 204, [4-(4-tert-Butyl-phenylamino)-7-(3-methyl-pyridin-2-yl)-pyrido[2,3d]pyrimidin-2-yl]-methanol] as the compound, how does the Ki read?
A: < 1 µM

Q: Which Ki does the source give for `FC(F)(F)c1ccc(Nc2nc(CCN3CCC4(CC3)OCCO4)nc3cc(-c4ncccc4C(F)(F)F)ccc23)cc1` [Compound 407, [2-[2-(1,4-Dioxa-8-aza-spiro[4.5]dec-8-yl)-ethyl]-7-(3-trifluoromethyl-pyridin-2-yl)-quinazolin-4-yl]-(4-trifluoromethyl-phenyl)-amine] here?
A: < 1 µM

Q: `Cc1cccnc1-c1ccc2c(Nc3ccc(C(F)(F)F)cc3)nc(CN3CCCC(C)(C)C3)nc2n1` [Compound 746, [2-(3,3-Dimethyl-piperidin-1-ylmethyl)-7-(3-methyl-pyridin-2-yl)-pyrido[2,3-d]pyrimidin-4-yl]-(4-trifluoromethyl-phenyl)-amine] was tested. Which Ki did it give?
A: < 1 µM

Q: Which Ki does the source give for `COCc1nc(Nc2ccc(C(C)(C)COC)cc2)c2ncc(-c3ncccc3C(F)(F)F)cc2n1` [Compound 58, [4-(2-Methoxy-1,1-dimethyl-ethyl)-phenyl]-[2-methoxymethyl-7-(3-trifluoromethyl-pyridin-2-yl)-pyrido[3,2-d]pyrimidin-4-yl]-amine] here?
A: < 1 µM

Q: With `CC1CN(CCc2nc(Nc3ccc(C(F)(F)F)cc3)c3ccc(-c4ncccc4C(F)(F)F)cc3n2)CC(C)O1` (centres unmarked) [Compound 561, [2-[2-(2,6-Dimethyl-morpholin-4-yl)-ethyl]-7-(3-trifluoromethyl-pyridin-2-yl)-quinazolin-4-yl]-(4-trifluoromethyl-phenyl)-amine] as the compound, how does the Ki read?
A: < 1 µM

Q: How did the Ki turn out when `CCN(CC)CCOCc1nc(Nc2ccc(C(F)(F)F)nc2)c2ccc(-c3ncccc3C(F)(F)F)cc2n1` [Compound 29, [2-(2-Diethylamino-ethoxymethyl)-7-(3-trifluoromethyl-pyridin-2-yl)-quinazolin-4-yl]-(6-trifluoromethyl-pyridin-3-yl)-amine] was run?
A: < 1 µM

Q: How did the Ki turn out when `CC(C)S(=O)(=O)c1ccc(Nc2nc(CN3C[C@@H](C)O[C@H](C)C3)nc3cc(-c4ncccc4Cl)ccc23)cc1` [Compound 631, (R,R)-[7-(3-Chloro-pyridin-2-yl)-2-(2,6-dimethyl-morpholin-4-ylmethyl)-quinazolin-4-yl]-[4-(propane-2-sulfonyl)-phenyl]-amine] was run?
A: < 1 µM

Q: How did the Ki turn out when `CC(C)COCc1nc(Nc2ccc(N3CCOCC3)cc2)c2ccc(-c3ncccc3Cl)nc2n1` [Compound 263, [7-(3-Chloro-pyridin-2-yl)-2-isobutoxymethyl-pyrido[2,3-d]pyrimidin-4-yl]-(4-morpholin-4-yl-phenyl)-amine] was run?
A: < 1 µM

Q: Which Ki does the source give for `C[C@@H]1CN(Cc2nc(Nc3ccc(C(F)(F)F)cc3)c3ccc(-c4ncccc4C(F)(F)F)cc3n2)CCO1` [Compound 683, (R)-[2-(2-Methyl-morpholin-4-ylmethyl)-7-(3-trifluoromethyl-pyridin-2-yl)-quinazolin-4-yl]-(4-trifluoromethyl-phenyl)-amine] here?
A: < 1 µM

Q: Which Ki does the source give for `CCc1ccc(Nc2nc(COCC(C)C)nc3nc(-c4ncccc4Cl)ccc23)cc1` [Compound 265, [7-(3-Chloro-pyridin-2-yl)-2-isobutoxymethyl-pyrido[2,3-d]pyrimidin-4-yl]-(4-ethyl-phenyl)-amine] here?
A: < 1 µM

Q: With `OC1CCCN(Cc2nc(Nc3ccc(C(F)(F)F)cc3)c3ccc(-c4ncccc4C(F)(F)F)cc3n2)C1` (centres unmarked) [Compound 499, 1-[4-(4-Trifluoromethyl-phenylamino)-7-(3-trifluoromethyl-pyridin-2-yl)-quinazolin-2-ylmethyl]-piperidin-3-ol] as the compound, how does the Ki read?
A: < 1 µM

Q: Which Ki does the source give for `CN(Cc1cccc(F)c1)Cc1nc(Nc2ccc(C(F)(F)F)nc2)c2ccc(-c3ncccc3C(F)(F)F)cc2n1` [Compound 353] here?
A: < 1 µM

Q: `COCc1nc(Nc2ccc(C(C)=O)cc2)c2ccc(-c3ncccc3C(F)(F)F)nc2n1` [Compound 289, 1-{4-[2-Methoxymethyl-7-(3-trifluoromethyl-pyridin-2-yl)-pyrido[2,3-d]pyrimidin-4-ylamino]-phenyl}-ethanone] was tested. Which Ki did it give?
A: < 1 µM

Q: `CC(C)c1ccc(Nc2nc(CN3C[C@@H](C)O[C@@H](C)C3)nc3cc(-c4ncccc4Cl)ccc23)cc1` [Compound 681, [7-(3-Chloro-pyridin-2-yl)-2-(2,6-dimethyl-morpholin-4-ylmethyl)-quinazolin-4-yl]-(4-isopropyl-phenyl)-amine (cis)] was tested. Which Ki did it give?
A: < 1 µM

Q: Which Ki does the source give for `CC(C)c1ccc(Nc2nc(CN3C[C@@H](C)O[C@H](C)C3)nc3cc(-c4ncccc4C(F)(F)F)ccc23)cc1` [Compound 652, (R,R)-[2-(2,6-Dimethyl-morpholin-4-ylmethyl)-7-(3-trifluoromethyl-pyridin-2-yl)-quinazolin-4-yl]-(4-isopropyl-phenyl)-amine] here?
A: < 1 µM

Q: `C[C@@H]1CN(Cc2nc(Nc3ccc(C(F)(F)F)nc3)c3ncc(-c4ncccc4C(F)(F)F)cc3n2)C[C@H](C)O1` [Compound 547, [2-(2,6-Dimethyl-morpholin-4-ylmethyl)-7-(3-trifluoromethyl-pyridin-2-yl)-pyrido[3,2-d]pyrimidin-4-yl]-(6-trifluoromethyl-pyridin-3-yl)-amine (cis)] was tested. Which Ki did it give?
A: < 1 µM

Q: `CC1CN(Cc2nc(Nc3ccc(C(C)C(F)(F)F)cc3)c3ccc(-c4ncccc4C(F)(F)F)cc3n2)CC(C)O1` (centres unmarked) [Compound 525, [2-(2,6-Dimethyl-morpholin-4-ylmethyl)-7-(3-trifluoromethyl-pyridin-2-yl)-quinazolin-4-yl]-[4-(2,2,2-trifluoro-1-methyl-ethyl)-phenyl]-amine] was tested. Which Ki did it give?
A: < 1 µM

Q: `OCCC1CCN(Cc2nc(Nc3ccc(C(F)(F)F)nc3)c3ccc(-c4ncccc4C(F)(F)F)cc3n2)CC1` [Compound 481, 2-{1-[7-(3-Trifluoromethyl-pyridin-2-yl)-4-(6-trifluoromethyl-pyridin-3-ylamino)-quinazolin-2-ylmethyl]-piperidin-4-yl}-ethanol] was tested. Which Ki did it give?
A: < 1 µM

Q: With `NC(=O)C1CCN(Cc2nc(Nc3ccc(C(F)(F)F)cc3)c3ccc(-c4ncccc4C(F)(F)F)cc3n2)CC1` [Compound 500, 1-[4-(4-Trifluoromethyl-phenylamino)-7-(3-trifluoromethyl-pyridin-2-yl)-quinazolin-2-ylmethyl]-piperidine-4-carboxylic acid amide] as the compound, how does the Ki read?
A: < 1 µM

Q: How did the Ki turn out when `CCOCc1nc(Nc2ccc(S(=O)(=O)C(F)(F)F)cc2)c2ccc(-c3ncccc3Cl)nc2n1` [Compound 135, [7-(3-Chloro-pyridin-2-yl)-2-ethoxymethyl-pyrido[2,3-d]pyrimidin-4-yl]-(4-trifluoromethanesulfonyl-phenyl)-amine] was run?
A: < 1 µM

Q: With `CCOCc1nc(Nc2ccc(C(F)(F)F)c(C)c2)c2ccc(-c3ncccc3Cl)nc2n1` [Compound 184, [7-(3-Chloro-pyridin-2-yl)-2-ethoxymethyl-pyrido[2,3-d]pyrimidin-4-yl]-(3-methyl-4-trifluoromethyl-phenyl)-amine] as the compound, how does the Ki read?
A: < 1 µM

Q: How did the Ki turn out when `Cc1cccnc1-c1ccc2c(Nc3ccc(OC(F)(F)F)cc3)nc(COCC(C)C)nc2n1` [Compound 190, [2-Isobutoxymethyl-7-(3-methyl-pyridin-2-yl)-pyrido[2,3-d]pyrimidin-4-yl]-(4-trifluoromethoxy-phenyl)-amine] was run?
A: < 1 µM

Q: Which Ki does the source give for `C[C@@H]1CN(Cc2nc(Nc3ccc(C(C)(C)C)cc3)c3ccc(-c4ncccc4Cl)cc3n2)C[C@@H](C)O1` [Compound 621, (R,R)-(4-tert-Butyl-phenyl)-[7-(3-chloro-pyridin-2-yl)-2-(2,6-dimethyl-morpholin-4-ylmethyl)-quinazolin-4-yl]-amine] here?
A: < 1 µM

Q: `CCCC(=O)c1ccc(Nc2nc(COCC(C)C)nc3nc(-c4ncccc4Cl)ccc23)cc1` [Compound 280, 1-{4-[7-(3-Chloro-pyridin-2-yl)-2-isobutoxymethyl-pyrido[2,3-d]pyrimidin-4-ylamino]-phenyl}-butan-1-one] was tested. Which Ki did it give?
A: < 1 µM
